These results are taken from US20060069132A1, “Azolecarboxamide herbicides” (priority 2004, published 2006).

The subject of one assay is barnyardgrass. As to the kind of experiment: Test A pre-/postemergence herbicide test. It counts as in vivo, Echinochloa crus-galli. The method in brief:
(§1)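 Visual injury scores on a 0–100 scale (100 = complete control) taken about ten days post-treatment in greenhouse against untreated controls; dash means no result. Treatments: preemergence soil spray and postemergence spray to runoff on one- to two-leaf plants 2 to 10 cm tall, surfactant-containing formulation.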

For the next assay, the system named is large crabgrass. As to the kind of experiment: Test A pre-/postemergence herbicide test. Type of assay: in vivo, Digitaria sanguinalis. An outline of the steps: as §1
In the next assay the test system is redroot pigweed. The assay can be described thus: Test A pre-/postemergence herbicide test. Type of assay: in vivo, Amaranthus retroflexus. The method in brief:
as §1

Assay [1] concerns smallflower umbrella sedge. As to the kind of experiment: Test C flooded paddy test. Type of assay: in vivo, Cyperus difformis. The following applies: for Plant response rating, Sedge, Umbrella: 500 g ai/ha, visual rating after 12 to 14 days.
Where [2] appears, read: Postemergence, 500 g ai/ha, 0 to 100 scale, 0 no effect, 100 complete control.
[3] abbreviates: Postemergence, 2000 g ai/ha, 0 to 100 scale, 0 no effect, 100 complete control.
Where [4] appears, read: Preemergence, 2000 g ai/ha, visual rating, 0 to 100 scale (0 no effect, 100 complete control).
The mark [5] stands for this setting: preemergence, 500 g ai/ha, visual injury, 0 to 100 scale (0 no effect, 100 complete control).
[6] abbreviates: 125 g ai/ha, scale 0 to 100 (0 no effect, 100 complete control).
Where [7] appears, read: 250 g ai/ha, scale of 0 to 100, 0 is no effect, 100 is complete control.
The mark [8] stands for this setting: scale 0 to 100 (0 no effect, 100 complete control).
Setting [9] is: Preemergence, 500 g ai/ha, visual rating, 0 to 100 scale (0 no effect, 100 complete control).
Setting [10] is: 62 g ai/ha, scale 0 to 100 (0 no effect, 100 complete control).

As to `C#CCNC(=O)c1cccc(NC(=O)c2sc(C(C)(C)C)nc2CC)c1` [Compound 319], the entries for the “Barnyardgrass plant response rating” value in the assay with barnyardgrass (setting [2]), in the assay on barnyardgrass (setting [4]) and in the assay with barnyardgrass (setting [5]) were 10, 80 and 55, respectively. Besides, the “Plant response rating, Barnyardgrass” value with barnyardgrass (setting [3]) is reported as 60. Also, the entries for the “Crabgrass, Large plant response rating” value in the assay on large crabgrass (setting [2]), in the assay on large crabgrass (setting [4]) and with large crabgrass (setting [5]) were 10, 100 and 85, respectively. For the same compound, in the assay on large crabgrass (setting [3]), the “Plant response rating, Crabgrass, Large” value was found to be 50. For the same compound, the results for the “Pigweed plant response rating” value in the assay with redroot pigweed (setting [2]), with redroot pigweed (setting [4]) and with redroot pigweed (setting [5]) were 40, 100 and 100, respectively. For the same compound, the “Plant response rating, Pigweed” value with redroot pigweed (setting [3]) is listed as 40. Besides, the “Sedge, Umbrella plant response rating” value in assay [1] (62 g ai/ha, scale 0 to 100) was determined as 20; in assay [1] (setting [6]), 35; in assay [1] (setting [7]), 70. In addition, the “Plant response rating, Sedge, Umbrella” value in assay [1] (setting [8]) is recorded as 80.
Take `CCOc1cccc(NC(=O)c2cc(C(C)(C)C)nn2CC)c1` [Compound 136]: the results for the “Barnyardgrass plant response rating” value in the assay on barnyardgrass (setting [2]), in the assay on barnyardgrass (setting [9]) and in the assay on barnyardgrass (setting [4]) were 55, 65 and 85, respectively. Besides, the “Plant response rating, Barnyardgrass” value in the assay with barnyardgrass (setting [3]) is on record as 60. The “Crabgrass, Large plant response rating” value with large crabgrass (setting [2]) is listed as 35; with large crabgrass (setting [9]) it was 85; in the assay on large crabgrass (setting [4]), 90. Besides, the “Plant response rating, Crabgrass, Large” value with large crabgrass (setting [3]) is reported as 70. Besides, the “Pigweed plant response rating” value with redroot pigweed (setting [2]) is 65; with redroot pigweed (setting [4]) it was 80; in the assay with redroot pigweed (setting [5]), 70. Moreover, the “Plant response rating, Pigweed” value in the assay on redroot pigweed (setting [3]) came out at 85. Further, the results for the “Sedge, Umbrella plant response rating” value in assay [1] (setting [10]), in assay [1] (setting [6]) and in assay [1] (setting [7]) were 65, 80 and 85, respectively. Further, the “Plant response rating, Sedge, Umbrella” value in assay [1] (setting [8]) came to 85.
For `CCN(C(C)=O)C(=O)c1ccc(F)c(NC(=O)c2cc(C(C)(C)C)nn2CC)c1` [Compound 413], the “Barnyardgrass plant response rating” value is given as 20 in the assay on barnyardgrass (setting [2]), 75 in the assay on barnyardgrass (setting [4]) and 60 in the assay with barnyardgrass (setting [5]). Also, the “Plant response rating, Barnyardgrass” value in the assay on barnyardgrass (setting [3]) came to 50. Further, the “Crabgrass, Large plant response rating” value in the assay with large crabgrass (setting [2]) was 10; in the assay on large crabgrass (setting [4]) it was 70; in the assay with large crabgrass (setting [5]) it was 40. Further, the “Plant response rating, Crabgrass, Large” value in the assay with large crabgrass (setting [3]) came to 15. Further, the “Pigweed plant response rating” value in the assay with redroot pigweed (setting [2]) is 60; in the assay on redroot pigweed (setting [4]) it was 60; in the assay with redroot pigweed (setting [5]), 45. In the assay with redroot pigweed (setting [3]), the “Plant response rating, Pigweed” value amounted to 85. The “Sedge, Umbrella plant response rating” value stood at 10 in assay [1] (62 g ai/ha, scale 0 to 100); 50 in assay [1] (setting [6]); 75 in assay [1] (setting [7]). Further, the “Plant response rating, Sedge, Umbrella” value in assay [1] (setting [8]) is 75.
With `CCn1nc(C(C)(C)C)cc1C(=O)Nc1cccc(C(C)=O)c1` [Compound 122], the “Barnyardgrass plant response rating” value in the assay on barnyardgrass (setting [2]) amounted to 75; in the assay on barnyardgrass (setting [9]), 90; in the assay on barnyardgrass (setting [4]) it was 95. For the same compound, the “Plant response rating, Barnyardgrass” value in the assay with barnyardgrass (setting [3]) was determined as 85. Moreover, the “Crabgrass, Large plant response rating” value in the assay on large crabgrass (setting [2]) turned out to be 35; in the assay with large crabgrass (setting [9]) it was 70; with large crabgrass (setting [4]), 95. Further, the “Plant response rating, Crabgrass, Large” value with large crabgrass (setting [3]) stood at 65. The “Pigweed plant response rating” value in the assay with redroot pigweed (setting [2]) is on record as 60; in the assay on redroot pigweed (setting [4]), 90; in the assay on redroot pigweed (setting [5]), 85. Also, in the assay on redroot pigweed (setting [3]), the “Plant response rating, Pigweed” value is recorded as 100. The “Sedge, Umbrella plant response rating” value in assay [1] (setting [10]) was determined as 50; in assay [1] (125 g ai/ha, scale of 0 to 100, 0 is no effect, 100 is complete control), 60; in assay [1] (setting [7]) it was 70. Besides, in assay [1] (setting [8]), the “Plant response rating, Sedge, Umbrella” value is 80.
Regarding `CCNC(=O)c1ccc(F)c(NC(=O)c2cc(C(C)(C)C)nn2CC)n1` [Compound 278], the entries for the “Barnyardgrass plant response rating” value in the assay with barnyardgrass (setting [2]), in the assay on barnyardgrass (setting [4]) and in the assay on barnyardgrass (setting [5]) were 30, 80 and 50, respectively. Further, the “Plant response rating, Barnyardgrass” value in the assay with barnyardgrass (setting [3]) is recorded as 60. Also, the figures for the “Crabgrass, Large plant response rating” value in the assay with large crabgrass (setting [2]), in the assay with large crabgrass (setting [4]) and with large crabgrass (setting [5]) were 10, 60 and 25, respectively. Also, the “Plant response rating, Crabgrass, Large” value in the assay on large crabgrass (setting [3]) came out at 5. Moreover, the “Pigweed plant response rating” value in the assay with redroot pigweed (setting [2]) was 60; with redroot pigweed (setting [4]) it was 95; in the assay on redroot pigweed (setting [5]), 85. Moreover, the “Plant response rating, Pigweed” value in the assay with redroot pigweed (setting [3]) is 70. Moreover, the “Sedge, Umbrella plant response rating” value in assay [1] (62 g ai/ha, scale 0 to 100) is on record as 0; in assay [1] (setting [6]) it was 25; in assay [1] (setting [7]) it was 65. For the same compound, the “Plant response rating, Sedge, Umbrella” value in assay [1] (setting [8]) stood at 75.
With `CCc1nc(C(C)(C)C)sc1C(=O)Nc1cccc(C(=O)NC(C)(C)C)n1` [Compound 216], the “Barnyardgrass plant response rating” value came to 0 with barnyardgrass (setting [2]), 35 in the assay on barnyardgrass (setting [4]) and 15 in the assay with barnyardgrass (setting [5]). Also, the “Plant response rating, Barnyardgrass” value in the assay on barnyardgrass (setting [3]) amounted to 15. The “Crabgrass, Large plant response rating” value with large crabgrass (setting [2]) is on record as 20; with large crabgrass (setting [4]), 55; in the assay with large crabgrass (setting [5]), 15. Further, the “Plant response rating, Crabgrass, Large” value with large crabgrass (setting [3]) was found to be 20. Also, the “Pigweed plant response rating” value amounted to 30 in the assay with redroot pigweed (setting [2]), 70 in the assay on redroot pigweed (setting [4]) and 0 in the assay on redroot pigweed (setting [5]). Also, the “Plant response rating, Pigweed” value in the assay on redroot pigweed (setting [3]) is on record as 55. The “Sedge, Umbrella plant response rating” value in assay [1] (setting [10]) is reported as 20; in assay [1] (setting [6]), 30; in assay [1] (setting [7]), 30. Further, the “Plant response rating, Sedge, Umbrella” value in assay [1] (setting [8]) was determined as 50.
